PubChem BioAssay (NCI)
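Dose response: 5 concentrations. Exposure: 48 h. Format: 96-well plates. Endpoint: linear interpolation; highest concentration if not reached. GI50 = concentration required for 50% inhibition of growth. TGI denotes the concentration required for complete inhibition of growth.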

Assays:
Experiment in all cases: NCI anticancer screen, dose series, 48 h
[1] = system: HS 578T breast
[2] = system: HOP-62 NSCLC
[3] = system: UO-31 renal
[4] = system: COLO 205 colon
[5] = system: RXF 393 renal
[6] = system: NCI-H460 lung
[7] = system: SK-MEL-2 melanoma
[8] = system: OVCAR-8 ovarian
[9] = system: SK-MEL-5 melanoma
[10] = system: HL-60(TB) leukemia
[11] = system: SN12C renal
[12] = system: MDA-MB-231 breast
[13] = system: KM12 colon
[14] = system: UACC-257 melanoma
[15] = system: HCT-15 colon
[16] = system: K-562 leukemia
[17] = system: SW-620 colon
[18] = system: 786-0 renal
[19] = system: NCI/ADR-RES ovarian
[20] = system: SNB-19 CNS
[21] = system: IGROV1 ovarian
[22] = system: SR leukemia
[23] = system: UACC-62 melanoma
[24] = system: PC-3 prostate
[25] = system: T-47D breast
[26] = system: NCI-H23 lung
[27] = system: OVCAR-5 ovarian
[28] = system: SNB-75 CNS
[29] = system: ACHN renal
[30] = system: U251 CNS
[31] = system: CCRF-CEM leukemia
[32] = system: HCC-2998 colon
[33] = system: NCI-H226 lung
[34] = system: MOLT-4 leukemia
[35] = system: LOX IMVI melanoma
[36] = system: BT-549 breast
[37] = system: HOP-92 NSCLC
[38] = system: EKVX NSCLC
[39] = system: CAKI-1 renal
[40] = system: SK-OV-3 ovarian
[41] = system: A549 NSCLC
[42] = system: HCT-116 colon
[43] = system: TK-10 renal
[44] = system: A498 renal
[45] = system: DU-145 prostate
[46] = system: SF-539 CNS
[47] = system: OVCAR-4 ovarian
[48] = system: M14 melanoma
[49] = system: NCI-H522 lung
[50] = system: OVCAR-3 ovarian
[51] = system: HT29 colon
[52] = system: SK-MEL-28 melanoma
[53] = system: SF-295 CNS
[54] = system: SF-268 CNS
[55] = system: MCF7 breast
[56] = system: RPMI-8226 leukemia
[57] = system: MDA-MB-435
[58] = system: MALME-3M melanoma

SMILES: COc1ccc(-c2nc(/C=C3\SC(=NCc4ccccc4)NC3=O)c3ccccn23)cc1
- GI50 [1]: 1.37 µM
- TGI [1]: 4.32 µM
- GI50 [2]: 1.54 µM
- TGI [2]: 3 µM
- GI50 [3]: 1.49 µM
- TGI [3]: 3 µM
- GI50 [4]: 2.75 µM
- TGI [4]: 7.66 µM
- GI50 [5]: 1.18 µM
- TGI [5]: 2.97 µM
- GI50 [6]: 0.666 µM
- TGI [6]: 2.24 µM
- GI50 [7]: 2.19 µM
- TGI [7]: 7.25 µM
- GI50 [8]: 2.04 µM
- TGI [8]: 8.13 µM
- GI50 [9]: 1.51 µM
- TGI [9]: 3.19 µM
- GI50 [10]: 2.1 µM
- TGI [10]: 5.11 µM
- GI50 [11]: 1.68 µM
- TGI [11]: 4.63 µM
- GI50 [12]: 1.01 µM
- TGI [12]: 3.84 µM
- GI50 [13]: 0.846 µM
- TGI [13]: 2.3 µM
- GI50 [14]: 1.52 µM
- TGI [14]: 3.51 µM
- GI50 [15]: 1.47 µM
- TGI [15]: 2.18 µM
- GI50 [16]: 2.76 µM
- TGI [16]: > 100 µM
- GI50 [17]: 1.68 µM
- TGI [17]: 3.45 µM
- GI50 [18]: 0.189 µM
- TGI [18]: 0.498 µM
- GI50 [19]: 1.39 µM
- TGI [19]: 5.76 µM
- GI50 [20]: 2.71 µM
- TGI [20]: 9.68 µM
- GI50 [21]: 1.47 µM
- TGI [21]: 4.22 µM
- GI50 [22]: 2.5 µM
- TGI [22]: > 100 µM
- GI50 [23]: 1.55 µM
- TGI [23]: 3.8 µM
- GI50 [24]: 1.28 µM
- TGI [24]: 4.35 µM
- GI50 [25]: 1.26 µM
- TGI [25]: 3.11 µM
- GI50 [26]: 1.37 µM
- TGI [26]: 3.51 µM
- GI50 [27]: 1.5 µM
- TGI [27]: 2.45 µM
- GI50 [28]: 1.51 µM
- TGI [28]: 3.2 µM
- GI50 [29]: 1.34 µM
- TGI [29]: 1.94 µM
- GI50 [30]: 1.95 µM
- GI50 [31]: 2.83 µM
- TGI [31]: > 100 µM
- GI50 [32]: 1.68 µM
- TGI [32]: 4.83 µM
- GI50 [33]: 2.47 µM
- TGI [33]: 10 µM
- GI50 [34]: 2.72 µM
- TGI [34]: > 100 µM
- GI50 [35]: 0.964 µM
- TGI [35]: 2.72 µM
- GI50 [36]: 1.38 µM
- TGI [36]: 3.1 µM
- GI50 [37]: 0.853 µM
- TGI [37]: 3.42 µM
- GI50 [38]: 2.41 µM
- TGI [38]: > 25.5 µM
- GI50 [39]: 1.76 µM
- TGI [39]: 3.55 µM
- GI50 [40]: 2.05 µM
- TGI [40]: 4.28 µM
- GI50 [41]: 1.58 µM
- TGI [41]: 4.25 µM
- GI50 [42]: 0.276 µM
- TGI [42]: 1.06 µM
- GI50 [43]: 2.31 µM
- TGI [43]: 5.24 µM
- GI50 [44]: 1.51 µM
- TGI [44]: 6.56 µM
- GI50 [45]: 0.685 µM
- TGI [45]: 1.81 µM
- GI50 [46]: 1.41 µM
- TGI [46]: 1.99 µM
- GI50 [47]: 1.39 µM
- TGI [47]: 2.84 µM
- GI50 [48]: 1.12 µM
- TGI [48]: 2.42 µM
- GI50 [49]: 0.79 µM
- TGI [49]: 7.16 µM
- GI50 [50]: 1.04 µM
- TGI [50]: 2.46 µM
- GI50 [51]: 0.818 µM
- TGI [51]: 2.17 µM
- GI50 [52]: 2 µM
- TGI [52]: 4.4 µM
- GI50 [53]: 2.25 µM
- TGI [53]: 7.62 µM
- GI50 [54]: 0.377 µM
- TGI [54]: 1.57 µM
- GI50 [55]: 1.55 µM
- TGI [55]: 3.39 µM

SMILES: COc1ccc(N(CC(=O)NCCC[Te]c2ccccc2)C(=O)CNC(=O)OC(C)(C)C)cc1
- GI50 [1]: 2.77 µM
- TGI [1]: 7.31 µM
- GI50 [2]: 2.19 µM
- TGI [2]: 4.73 µM
- GI50 [3]: 2.38 µM
- TGI [3]: 9.04 µM
- GI50 [56]: 2.4 µM
- TGI [56]: 7.3 µM
- GI50 [4]: 2.01 µM
- TGI [4]: 3.83 µM
- GI50 [6]: 0.45 µM
- TGI [6]: 1.85 µM
- GI50 [7]: 2.99 µM
- TGI [7]: 6.77 µM
- GI50 [8]: 2.41 µM
- TGI [8]: 6.92 µM
- GI50 [9]: 3.13 µM
- TGI [9]: 9.13 µM
- GI50 [10]: 2.08 µM
- TGI [10]: 5.6 µM
- GI50 [11]: 2.06 µM
- TGI [11]: 4.97 µM
- GI50 [13]: 3.33 µM
- TGI [13]: 11.4 µM
- GI50 [57]: 3.31 µM
- TGI [57]: 13.5 µM
- GI50 [14]: 8.49 µM
- TGI [14]: 23.9 µM
- GI50 [15]: 3.15 µM
- TGI [15]: 11.7 µM
- GI50 [16]: 5.5 µM
- TGI [16]: > 100 µM
- GI50 [17]: 3.44 µM
- TGI [17]: 14.4 µM
- GI50 [18]: 3.75 µM
- TGI [18]: 13 µM
- GI50 [19]: 2.91 µM
- TGI [19]: 7.16 µM
- GI50 [20]: 0.875 µM
- TGI [20]: 9.64 µM
- GI50 [21]: 2.24 µM
- TGI [21]: 5.42 µM
- GI50 [22]: 1.66 µM
- TGI [22]: 7.75 µM
- GI50 [23]: 1.65 µM
- TGI [23]: 3.79 µM
- GI50 [24]: 1.72 µM
- TGI [24]: 10.1 µM
- GI50 [25]: 11 µM
- TGI [25]: 40.9 µM
- GI50 [26]: 2.5 µM
- TGI [26]: 6.61 µM
- GI50 [27]: 3 µM
- TGI [27]: 7.48 µM
- GI50 [28]: 2.07 µM
- TGI [28]: 7.43 µM
- GI50 [29]: 3.12 µM
- TGI [29]: 8.86 µM
- GI50 [30]: 2.37 µM
- TGI [30]: 6.51 µM
- GI50 [58]: 15.7 µM
- TGI [58]: 32.8 µM
- GI50 [32]: 2.6 µM
- TGI [32]: 6.6 µM
- GI50 [33]: 2.29 µM
- TGI [33]: 5.36 µM
- GI50 [34]: 3.08 µM
- TGI [34]: 9.89 µM
- GI50 [35]: 2.33 µM
- TGI [35]: 5.76 µM
- GI50 [36]: 1.68 µM
- TGI [36]: 4.86 µM
- GI50 [37]: 2.36 µM
- TGI [37]: 4.94 µM
- GI50 [38]: 0.343 µM
- TGI [38]: 2.35 µM
- GI50 [39]: 2.1 µM
- TGI [39]: 5.6 µM
- GI50 [40]: 2.34 µM
- TGI [40]: 4.83 µM
- GI50 [41]: 0.521 µM
- TGI [41]: 2.17 µM
- GI50 [42]: 2.07 µM
- TGI [42]: 6.45 µM
- GI50 [43]: 3.93 µM
- TGI [43]: 10.8 µM
- GI50 [44]: 2.28 µM
- TGI [44]: 5.35 µM
- GI50 [45]: 2.91 µM
- TGI [45]: 7.6 µM
- GI50 [46]: 2.14 µM
- TGI [46]: 4.84 µM
- GI50 [47]: 22.6 µM
- TGI [47]: > 100 µM
- GI50 [48]: 3.53 µM
- TGI [48]: 10.6 µM
- GI50 [49]: 2.56 µM
- TGI [49]: 10.6 µM
- GI50 [50]: 3 µM
- TGI [50]: 7.88 µM
- GI50 [51]: 3.82 µM
- TGI [51]: 13.9 µM
- GI50 [52]: 3.07 µM
- TGI [52]: 10.1 µM
- GI50 [53]: 1.27 µM
- TGI [53]: 4.11 µM
- GI50 [54]: 2.7 µM
- TGI [54]: 7.56 µM
- GI50 [55]: 2.57 µM
- TGI [55]: 7.59 µM
